Values of other authors, collected in publication PMC9305358 (The Journal of Biological Chemistry, 2022).
Read-outs that look alike come from different tables or passages of the source.

How the values were obtained:
ClpC1 = conditions: cited from earlier work
ClpC1 NTD = conditions: crystal structure pdb6PBS, ref [25]; cited from earlier work
Mtb cells = conditions: ref [19], [20], [21], [22]; cited from earlier work

Row | Substance | effect on ClpC1 ATPase activity (ClpC1; ref [20], [21]) | binding stoichiometry/mode at ClpC1 NTD (ClpC1 NTD) | toxicity to Mtb cells (Mtb cells) | effect on ClpC1 ATPase activity (ClpC1; ref [22])
1 | ecumicin | increase ClpC1 ATPase activity | two ecumicin peptides bind to the NTD | highly toxic to Mtb cells | 
2 | lassomycin | increase ClpC1 ATPase activity |  | highly toxic to Mtb cells | 
3 | rufomycin |  |  | highly toxic to Mtb cells | shows no impact
